The source of these data is patent US5565561A, “Natural substance cyclamenol and chemical derivatives” (Bayer Aktiengesellschaft, priority 1992, dated 1996).

For orientation: inhibition means how much of the control response was suppressed. A higher inhibition goes with a response far below the control.

Assay [1] deals with infarcted cardiac tissue. Put plainly: Reduction of the infarct size in the rat infarct model. It is filed as in vivo, Wistar rats. Particulars: 1 mg/kg each before occlusion and before reperfusion, jugular vein infusion; average and standard deviation, 11 rats. Here is the method:
After a 5-minute post-operative recovery phase, the compound from Example 1 in a dose of 1 mg/kg dissolved in 100% DMSO or solvents was infused for 6 min into the catheterized jugular vein of the ventilated rats and the coronary artery was occluded for 30 min. At the 25 minute point of the occlusion, the second administration of the compound from Example 1 or solvent is carried out under the conditions described above. After the end of the infusion and occulsion phase, the ligature was opened and the heart was reperfused for 90 min.
For histological staining of the infarcted cardiac tissue, the heart was perfused ex vivo retrogressively with triphenyltetrazolium chloride (TTC, 1.5%) in 20 mM potassium phosphate buffer for 15 min and with 0.9% NaCl for 10 min at 37° C. and at a perfusion pressure of 100 mm Hg. The infarct sizes were calculated in percent by weight of infarcted to non-infarcted tissue and indicated in percent as average values and their standard deviations of 11 rats treated with the compound from Example 1 and of 11 treated with solvent.

The subject of assay [2] is myeloperoxidase activity (accumulation of neutrophilic leucocytes). Nature of the assay: LTB4-superfused hamster cheek pouch, myeloperoxidase activity as measure of accumulation of neutrophilic leucocytes. It is filed as in vivo. Particulars: 1 mg/kg i.v.; cheek pouch superfused with LTB4 for 10 min. An excerpt: (§1) 3. Leucocyte adhesion in small venules was investigated in the hamster cheek pouch (preparation according to Duling, MVR 5, 423-429, 1973). An increased adhesion is caused by the preparatory preparation of the cheek pouch. […] The determination of the myeloperoxidase activity as a direct measure of the accumulation of neutrophilic leucocytes gives increases of around 80-100% compared to the control.

In assay [3] the test system is Leucocyte adhesion in small venules. Nature of the assay: Leucocyte adhesion in small venules of the hamster cheek pouch. Particulars: Mesocricetus auratus, iv, adhesion caused by the preparation, read-out: dose from which leucocyte adhesion is significantly reduced. It is filed as in vivo.
Text: as §1

Assay [4] has as its target T1, Myeloperoxidase from human polymorphonuclear neutrophils (Homo sapiens, UniProt P05164).
T1 construct: The latter were isolated from fresh venous whole blood; endogenous in cells; host or cells: human polymorphonuclear neutrophils isolated from fresh venous whole blood; lysed with cetyltrimethylammonium bromide, 40,000 g supernatant
Put plainly: Inhibition of myeloperoxidase activity (ortho-dianisidine/H2O2, absorbance at 490 nm). It is filed as biochemical. Conditions: pH 6.0, 30° C. Here is the method: Myeloperoxidase from human polymorphonuclear neutrophils was used for the measurements. The latter were isolated from fresh venous whole blood according to the method of D. English and B. R. Andersen, Journal of Immunological Methods 5, (1974) 249-252.
10^7 cells were lysed at 0° C. for 10 min using 1 ml of 0.5% cetyltrimethylammonium bromide in 50 mmol/l sodium phosphate buffer pH 6.0, frozen and directly thawed again. This process was repeated twice. The suspension was then centrifuged at 40,000 g for 10 min. The supernatant was diluted with 50 mmol/l sodium phosphate buffer pH 6.0 according to its myeloperoxidase activity and used for the tests.
To carry out the tests, 10 μl of test sample are added to a dimethyl sulphoxide-containing solution (max. v/v 30%) with 30 μl of the myeloperoxidase solution prepared as described above=1-2.5 μg of protein, in a microtitre plate (Greiner) with a smooth bottom. The reaction is started by addition of a test mixture consisting of 250 μl of 50 mmol/l sodium phosphate buffer pH 6.0, 10 μl of 0.5×10^-3 mmol/l H2 O2 and 10 μl of 2.5×10^-2 mol/l ortho-dianisidine in dimethyl sulphoxide. The increase in the absorbance is measured at 490 nm in an Elisa reader at 30° C. 6 measurements are carried out at an interval of 2 min and the increase in absorbance per minute is calculated. A control which instead of a test sample contains only the corresponding amount of dimethyl sulphoxide is prepared as the 100% value and then the inhibition by the sample is calculated. All measurements are carried out as a triplicate determination.

T1 sequence (P05164 279-745 limits assumed): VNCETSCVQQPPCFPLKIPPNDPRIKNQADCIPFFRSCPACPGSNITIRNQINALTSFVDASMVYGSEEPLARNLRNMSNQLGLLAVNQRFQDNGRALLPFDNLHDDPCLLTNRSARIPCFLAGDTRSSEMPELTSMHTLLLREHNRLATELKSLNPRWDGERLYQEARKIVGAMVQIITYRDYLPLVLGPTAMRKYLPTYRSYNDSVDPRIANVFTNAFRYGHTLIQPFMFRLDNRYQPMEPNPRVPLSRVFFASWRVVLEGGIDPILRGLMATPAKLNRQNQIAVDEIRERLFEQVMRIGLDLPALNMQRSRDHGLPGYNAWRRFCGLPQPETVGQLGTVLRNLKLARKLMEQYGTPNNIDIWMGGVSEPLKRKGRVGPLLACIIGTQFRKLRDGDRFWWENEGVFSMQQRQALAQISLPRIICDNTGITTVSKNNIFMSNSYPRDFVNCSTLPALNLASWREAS
T1 sequence (P05164 165-278 limits assumed): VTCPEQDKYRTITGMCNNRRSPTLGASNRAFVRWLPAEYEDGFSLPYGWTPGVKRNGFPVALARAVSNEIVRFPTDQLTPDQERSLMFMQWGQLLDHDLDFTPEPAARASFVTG

Turning to `CC1C=CC=CC=CC=CC(O)CC=CC=CC=CC(=O)NC1` (centres unmarked) [Example 1, Cyclamenol], in assay [1], the “reduction of infarct size” value turned out to be 12.2±4.8% and the “reduction of infarct size (first value)” value was determined as 19.0±6.0%. Moreover, the “effect on the rise in MPO activity” value in assay [2] is given as “prevents the rise in the MPO activity”. In addition, the minimal effective dose in assay [3] was not below 0.1 mg/kg. The same compound displayed an inhibition at 0.1 µM in assay [4] (0.1 μmol/l) of 12%. In assay [4] (1 μmol/l), this compound came in with an inhibition at 1 µM of 28%. In addition, 10 µM produced 45% inhibition in assay [4] (10 μmol/l). Besides, in assay [4] (50 μmol/l), the inhibition at 50 µM stood at 60%.
